From patent US11926845B2, “Cell culture method and automatic cell culture apparatus” (Hitachi, Ltd., priority 2020, dated 2024)

Assays:
253G1 strain = test: hCG secretion into culture supernatant (ELISA) of 253G1 strain cultured on coated planar mesh; format: cell-based, human; conditions: for secretion amount of hCG, increase as compared with the case where the ROCK inhibitor was not added / secretion amount of hCG, course after the increase: 253G1 strain; for secretion amount of hCG, course after the increase: after Day 17
Protocol: Preparation of the cell culture substrate and seeding of the iPS cells were carried out in the same manner as in the second example. After 24 hours from seeding, a total amount of iPS cell suspension was removed and replaced with a new Essential 8 medium, so that the ROCK inhibitor was completely removed once. Then, every 4 days, half the amount of the culture supernatant was recovered, and the amount of culture supernatant was maintained by adding a new Essential 8 medium in an amount equal to a removed amount. The ROCK inhibitor (Y-27632, Wako Pure Chemical Co.) was added to a part of the medium of the cell culture substrate on which the 253G1 strain is seeded from Day 9 of culturing or Day 13 of the culturing so that a final concentration was 20 μM, and the culturing was performed for 3 weeks.
The secretion amount of hCG, which is one of trophoblast differentiation markers, was quantified by using the recovered culture supernatant. For the quantification, the value of OD450 was detected by an absorbance plate reader (Corona Electric Co.) by using a Human hCG ELISA Kit (Abcam Co.). Details of an ELISA reaction and a measurement method followed a manual of a kit.

[1] = test system: human iPS cells (201B7 strain); test: hCG secretion into culture supernatant (ELISA) of 201B7 strain cultured on coated planar mesh; format: cell-based
Protocol: In the present example, the human iPS cells (201B7 strain) were cultured by using a culture substrate in which the planar mesh made of nickel was coated with parylene or Au, and an effect of the ROCK inhibitor on cell differentiation was investigated.
A cell culture substrate was prepared in the same procedure as in the first example. The i-Matrix (Nippi Inc.) adjusted to a concentration of 50 ng/μl as a scaffold material of cells was added so as to cover the mesh and the mixture was treated at 4° C. for 3 days. Thereafter, after i-Matrix was removed, and the washing was performed with an Essential 8 medium (GIBCO Co.), the human iPS cells (201B7 strain) was adjusted in the Essential 8 medium so as to be 1×10^5/ml, and an iPS cell suspension containing 10 μM of the ROCK inhibitor (Y-27632, Wako Pure Chemical Co.) was added on the mesh in the same manner as the scaffold material, and the cells were incubated at 37° C. in the cell culture apparatus adjusted to the CO2 concentration of 5%.
After 24 hours from seeding, a total amount of iPS cell suspension was removed and replaced with a new Essential 8 medium, so that the ROCK inhibitor was completely removed once. Then, every 4 days, half the amount of culture supernatant was recovered, and the amount of culture supernatant was maintained by adding a new Essential 8 medium in an amount equal to a removed amount. The ROCK inhibitor (Y-27632, Wako Pure Chemical Co.) was added to a part of the medium of the cell culture substrate on which the 201B7 strain is seeded from Day 9 of culturing or Day 13 of the culturing so that the final concentration of the ROCK inhibitor was 20 μM, and the culturing was performed for 3 weeks.
A secretion amount of hCG, which is one of trophoblast differentiation markers, was quantified by using the recovered culture supernatant. For the quantification, a value of OD450 was detected with an absorbance plate reader (Corona Electric Co. Ltd.) by using a Human hCG ELISA Kit (Abcam Co.). Details of an ELISA reaction and a measurement method followed a manual of a kit.

C[C@@H](N)[C@H]1CC[C@H](C(=O)Nc2ccncc2)CC1 [ROCK inhibitor, Y-27632]
differentiation into trophoblast cells (253G1 strain; 253G1 strain on planar mesh coated with parylene or Au, addition of the ROCK inhibitor): promoted | secretion amount of hCG, increase as compared with the case where the ROCK inhibitor was not added (253G1 strain; mesh coated with Au, 20 μM added from Day 9 of culturing, on Day 17): about twice | secretion amount of hCG, increase as compared with the case where the ROCK inhibitor was not added (253G1 strain; mesh coated with Au, 20 μM added from Day 9 of culturing, on Day 21): about three times | secretion amount of hCG, course after the increase (253G1 strain; mesh coated with Au, 20 μM added from Day 13 of culturing): the secretion amount was maintained thereafter | secretion amount of hCG, increase as compared with the case where the ROCK inhibitor was not added (253G1 strain; mesh coated with Au, 20 μM added from Day 13 of culturing, on Day 17): five times | secretion amount of hCG, course after the increase (253G1 strain; mesh coated with parylene, 20 μM added from Day 9 of culturing): the secretion amount was maintained thereafter | secretion amount of hCG, increase as compared with the case where the ROCK inhibitor was not added (253G1 strain; mesh coated with parylene, 20 μM added from Day 9 of culturing, on Day 17): about ten times | secretion amount of hCG, increase as compared with the case where the ROCK inhibitor was not added (253G1 strain; mesh coated with parylene, 20 μM added from Day 13 of culturing, on Day 21): three times | differentiation into trophoblast ([1]; 201B7 strain on planar mesh coated with parylene or Au, re-addition of the ROCK inhibitor): promoted | secretion amount of hCG, increase as compared with the case where the ROCK inhibitor was not added ([1]; 201B7 strain, mesh coated with Au, 20 μM added from Day 9 of culturing, on Day 17): about twice | secretion amount of hCG, increase as compared with the case where the ROCK inhibitor was not added ([1]; 201B7 strain, mesh coated with Au, 20 μM added from Day 9 of culturing, on Day 21): four times | secretion amount of hCG, course after the increase ([1]; 201B7 strain, mesh coated with Au, 20 μM added from Day 13 of culturing, after Day 17): the secretion amount was maintained thereafter | secretion amount of hCG, increase as compared with the case where the ROCK inhibitor was not added ([1]; 201B7 strain, mesh coated with Au, 20 μM added from Day 13 of culturing, on Day 17): about three times | secretion amount of hCG, course after the increase ([1]; 201B7 strain, mesh coated with parylene, 20 μM added from Day 9 of culturing, after Day 13): the secretion amount was maintained thereafter | secretion amount of hCG, increase as compared with a case where the ROCK inhibitor was not added ([1]; 201B7 strain, mesh coated with parylene, 20 μM added from Day 9 of culturing, on Day 13): about twice | secretion amount of hCG, increase as compared with the case where the ROCK inhibitor was not added ([1]; 201B7 strain, mesh coated with parylene, 20 μM added from Day 13 of culturing, on Day 17): about twice | secretion amount of hCG, increase as compared with the case where the ROCK inhibitor was not added ([1]; 201B7 strain, mesh coated with parylene, 20 μM added from Day 13 of culturing, on Day 21): about three times
